According to ChEMBL document CHEMBL6109152, “Harnessing the SPOP E3 Ubiquitin Ligase via a Bridged Proteolysis Targeting Chimera (PROTAC) Strategy for Targeted Protein Degradation” (J Med Chem, 2025):
The source made the active and inactive calls. The rule behind the calls is not given here.

Legend:
[1] = biological target: T1, Speckle-type POZ protein-Bromodomain-containing protein 4 (Homo sapiens, UniProt O60885+O43791); assay: PROTAC activity at SPOP/BRD4-S in human HT-29 cells assessed as induction of BRD4 short isoform degradation incubated for 24 hrs by Western blotting analysis; type: cell-based
[2] = biological target: T2, Histone-lysine N-methyltransferase EHMT1 (Homo sapiens, UniProt Q9H9B1); assay: Binding affinity to recombinant GLP-SET domain (unknown origin) assessed as assessed as dissociation constant by ITC analysis
T2 sequence (Q9H9B1 whole entry): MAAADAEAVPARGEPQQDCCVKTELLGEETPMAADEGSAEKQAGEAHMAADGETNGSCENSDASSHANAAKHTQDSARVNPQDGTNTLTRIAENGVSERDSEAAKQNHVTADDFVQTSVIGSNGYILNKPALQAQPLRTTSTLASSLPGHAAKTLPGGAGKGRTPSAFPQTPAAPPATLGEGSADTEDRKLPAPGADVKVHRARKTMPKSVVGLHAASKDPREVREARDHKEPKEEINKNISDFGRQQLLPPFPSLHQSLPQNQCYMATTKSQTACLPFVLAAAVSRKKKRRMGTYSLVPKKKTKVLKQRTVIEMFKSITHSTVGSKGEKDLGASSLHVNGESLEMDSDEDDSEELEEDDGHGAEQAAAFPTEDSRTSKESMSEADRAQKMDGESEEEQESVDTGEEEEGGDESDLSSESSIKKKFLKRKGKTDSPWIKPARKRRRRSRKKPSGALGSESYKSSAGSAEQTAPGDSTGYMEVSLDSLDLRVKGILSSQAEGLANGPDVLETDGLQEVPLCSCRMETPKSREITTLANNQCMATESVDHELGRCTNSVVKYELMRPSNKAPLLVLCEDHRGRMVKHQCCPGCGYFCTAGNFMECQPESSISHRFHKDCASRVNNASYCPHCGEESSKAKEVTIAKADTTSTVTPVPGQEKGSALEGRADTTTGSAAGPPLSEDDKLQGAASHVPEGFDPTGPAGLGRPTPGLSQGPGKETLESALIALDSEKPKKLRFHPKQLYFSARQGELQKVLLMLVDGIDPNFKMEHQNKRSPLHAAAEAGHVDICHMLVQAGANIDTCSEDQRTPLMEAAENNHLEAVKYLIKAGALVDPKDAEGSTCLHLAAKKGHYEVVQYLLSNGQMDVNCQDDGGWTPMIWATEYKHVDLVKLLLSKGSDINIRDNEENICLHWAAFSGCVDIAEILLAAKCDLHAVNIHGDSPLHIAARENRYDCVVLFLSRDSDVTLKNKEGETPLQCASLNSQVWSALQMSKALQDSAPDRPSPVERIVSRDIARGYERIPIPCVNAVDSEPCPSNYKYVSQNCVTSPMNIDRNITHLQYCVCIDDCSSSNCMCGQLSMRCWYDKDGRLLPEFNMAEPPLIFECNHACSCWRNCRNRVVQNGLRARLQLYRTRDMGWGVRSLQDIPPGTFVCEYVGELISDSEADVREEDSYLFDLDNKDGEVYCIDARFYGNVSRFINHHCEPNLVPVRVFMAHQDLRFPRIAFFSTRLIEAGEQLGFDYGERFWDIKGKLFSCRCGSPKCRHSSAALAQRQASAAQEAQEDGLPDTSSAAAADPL

[3] = biological target: T1, Speckle-type POZ protein-Bromodomain-containing protein 4; assay: PROTAC activity at SPOP/BRD4-L in human HT-29 cells assessed as induction of BRD4 long isoform degradation at 10 uM incubated for 24 hrs by Western blotting analysis relative to control; type: cell-based
[4] = biological target: T1, Speckle-type POZ protein-Bromodomain-containing protein 4; assay: PROTAC activity at SPOP/BRD4-L in human HT-29 cells assessed as induction of BRD4 long isoform degradation by measuring fold change at 0.156 uM incubated for 24 hrs by Western blotting analysis (reference value: 1.00); type: cell-based
[5] = biological target: T1, Speckle-type POZ protein-Bromodomain-containing protein 4; assay: PROTAC activity at SPOP/BRD4-L in human HT-29 cells assessed as induction of BRD4 long isoform degradation by measuring fold change at 10 uM incubated for 24 hrs by Western blotting analysis (reference value: 1.00); type: cell-based
[6] = biological target: T1, Speckle-type POZ protein-Bromodomain-containing protein 4; assay: PROTAC activity at SPOP/BRD4-S in human HT-29 cells assessed as induction of BRD4 short isoform degradation by measuring fold change at 0.313 uM incubated for 24 hrs by Western blotting analysis (reference value: 1.00); type: cell-based
[7] = biological target: T1, Speckle-type POZ protein-Bromodomain-containing protein 4; assay: PROTAC activity at SPOP/BRD4-S in human HT-29 cells assessed as induction of BRD4 short isoform degradation by measuring fold change at 2.5 uM incubated for 24 hrs by Western blotting analysis (reference value: 1.00); type: cell-based
[8] = biological target: T3, Speckle-type POZ protein-Bromodomain-containing protein 3 (Homo sapiens) (UniProt Q15059+O43791); assay: PROTAC activity at SPOP/BRD3 in human HT-29 cells assessed as induction of BRD3 degradation by measuring fold change at 0.156 uM incubated for 24 hrs by Western blot analysis (reference value: 1.00); type: cell-based
[9] = biological target: T4, Speckle-type POZ protein-Bromodomain-containing protein 2 (Homo sapiens) (UniProt P25440+O43791); assay: PROTAC activity at SPOP/BRD2 in human HT-29 cells assessed as induction of BRD2 degradation by measuring fold change at 0.625 uM incubated for 24 hrs by Western blot analysis (reference value: 1.00); type: cell-based
[10] = biological target: Bromodomain-containing protein 4 (Homo sapiens, UniProt O60885); assay: Inhibition of BRD4 in human HT-29 cells assessed as decrease in c-MYC protein level by measuring fold change at 0.313 uM incubated for 24 hrs by Western blot analysis (reference value: 1.00); type: cell-based
[11] = biological target: T1, Speckle-type POZ protein-Bromodomain-containing protein 4; assay: PROTAC activity at SPOP/BRD4-L in human HT-29 cells assessed as induction of BRD4 long isoform degradation at 5 uM measured after >=48 hrs by Western blotting analysis; type: cell-based
[12] = biological target: T4, Speckle-type POZ protein-Bromodomain-containing protein 2 (Homo sapiens); assay: PROTAC activity at SPOP/BRD2 in human HT-29 cells assessed as induction of BRD2 degradation at 5 uM measured after >=48 hrs by Western blot analysis; type: cell-based
[13] = biological target: T1, Speckle-type POZ protein-Bromodomain-containing protein 4; assay: PROTAC activity at SPOP/BRD4-S in human HT-29 cells assessed as induction of BRD4 short isoform degradation at 5 uM by Western blotting analysis; type: cell-based; conditions: time 2-72 hrs
HT-29 = assay: Effect on BRD4 short isoform mRNA level in human HT-29 cells at 1 to 10 uM incubated for 24 hrs by RT-qPCR analysis; type: functional, cell-based; conditions: dose 1-10 µM
[14] = biological target: T3, Speckle-type POZ protein-Bromodomain-containing protein 3 (Homo sapiens); assay: PROTAC activity at SPOP/BRD3 in human MDA-MB-231 cells assessed as induction of BRD3 degradation at 0.1 to 5 uM incubated for 24 hrs by Western blot analysis; type: cell-based; conditions: dose 0.1-5 µM
[15] = biological target: T4, Speckle-type POZ protein-Bromodomain-containing protein 2 (Homo sapiens); assay: PROTAC activity at SPOP/BRD2 in human MDA-MB-231 cells assessed as induction of BRD2 degradation at 0.1 to 5 uM incubated for 24 hrs by Western blot analysis; type: cell-based; conditions: dose 0.1-5 µM
[16] = biological target: T1, Speckle-type POZ protein-Bromodomain-containing protein 4; assay: PROTAC activity at SPOP/BRD4-S in human HT-29 cells assessed as induction of BRD4 short isoform degradation at 5 uM preincubated with MLN4924 for 2 hrs followed by compound addition and measured after 24 hrs by Western blot analysis; type: cell-based

T1 sequence (O43791 whole entry, looked up, other chains not shown, the tested form may be a part, canonical isoform): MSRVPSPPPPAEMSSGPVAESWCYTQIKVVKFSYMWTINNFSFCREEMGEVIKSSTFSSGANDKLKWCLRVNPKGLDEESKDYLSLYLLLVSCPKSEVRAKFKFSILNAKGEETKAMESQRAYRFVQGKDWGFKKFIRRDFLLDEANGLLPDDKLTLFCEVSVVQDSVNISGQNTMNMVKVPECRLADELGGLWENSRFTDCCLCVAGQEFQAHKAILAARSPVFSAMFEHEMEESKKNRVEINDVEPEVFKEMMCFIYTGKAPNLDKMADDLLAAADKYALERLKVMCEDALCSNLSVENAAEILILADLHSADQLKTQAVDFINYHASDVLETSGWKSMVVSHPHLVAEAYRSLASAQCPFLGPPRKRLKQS
T4 sequence (O43791 whole entry, looked up): as the sequence (O43791 whole entry, looked up, other chains not shown, the tested form may be a part, canonical isoform) above
T4 sequence (P25440 whole entry, looked up): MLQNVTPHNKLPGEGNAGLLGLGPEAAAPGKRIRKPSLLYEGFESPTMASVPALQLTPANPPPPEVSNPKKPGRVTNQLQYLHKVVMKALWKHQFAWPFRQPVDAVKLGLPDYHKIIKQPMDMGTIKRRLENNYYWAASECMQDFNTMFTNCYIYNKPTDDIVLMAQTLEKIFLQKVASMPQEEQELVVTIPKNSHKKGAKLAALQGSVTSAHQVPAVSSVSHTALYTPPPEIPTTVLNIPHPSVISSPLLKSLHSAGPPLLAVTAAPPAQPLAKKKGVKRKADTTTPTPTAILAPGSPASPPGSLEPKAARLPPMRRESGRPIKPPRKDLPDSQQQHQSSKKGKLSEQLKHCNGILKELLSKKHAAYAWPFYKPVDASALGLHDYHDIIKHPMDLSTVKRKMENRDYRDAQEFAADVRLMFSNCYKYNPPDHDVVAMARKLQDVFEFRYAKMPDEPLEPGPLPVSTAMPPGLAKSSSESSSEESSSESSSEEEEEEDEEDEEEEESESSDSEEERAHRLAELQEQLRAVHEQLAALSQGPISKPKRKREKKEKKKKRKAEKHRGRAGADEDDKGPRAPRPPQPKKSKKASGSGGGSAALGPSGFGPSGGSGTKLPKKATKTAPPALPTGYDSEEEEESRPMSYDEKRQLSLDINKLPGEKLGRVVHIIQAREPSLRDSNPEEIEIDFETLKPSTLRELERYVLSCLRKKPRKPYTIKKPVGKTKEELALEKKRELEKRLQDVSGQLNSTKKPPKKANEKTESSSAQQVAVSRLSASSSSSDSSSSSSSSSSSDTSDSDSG
T3 sequence (O43791 whole entry, looked up): as the sequence (O43791 whole entry, looked up, other chains not shown, the tested form may be a part, canonical isoform) above
T3 sequence (Q15059 whole entry, looked up): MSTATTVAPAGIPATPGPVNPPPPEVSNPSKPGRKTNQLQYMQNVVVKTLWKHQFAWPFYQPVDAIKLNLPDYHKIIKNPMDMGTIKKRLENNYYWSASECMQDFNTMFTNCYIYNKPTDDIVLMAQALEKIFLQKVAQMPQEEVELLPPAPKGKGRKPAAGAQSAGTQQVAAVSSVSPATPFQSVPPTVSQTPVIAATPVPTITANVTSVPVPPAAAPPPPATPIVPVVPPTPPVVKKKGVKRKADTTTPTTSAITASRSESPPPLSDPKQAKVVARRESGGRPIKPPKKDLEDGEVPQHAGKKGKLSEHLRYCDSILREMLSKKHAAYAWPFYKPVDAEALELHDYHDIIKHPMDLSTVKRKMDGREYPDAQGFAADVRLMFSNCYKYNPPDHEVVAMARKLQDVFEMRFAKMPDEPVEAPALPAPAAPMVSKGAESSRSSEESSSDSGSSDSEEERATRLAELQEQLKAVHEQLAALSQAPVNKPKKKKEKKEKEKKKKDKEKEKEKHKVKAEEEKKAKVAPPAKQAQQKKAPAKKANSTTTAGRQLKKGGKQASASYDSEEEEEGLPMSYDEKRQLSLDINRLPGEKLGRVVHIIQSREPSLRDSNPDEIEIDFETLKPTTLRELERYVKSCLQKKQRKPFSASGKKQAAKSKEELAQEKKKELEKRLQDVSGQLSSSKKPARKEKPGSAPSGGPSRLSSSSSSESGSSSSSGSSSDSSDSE

- Activity [1]: Dose-dependent-effect
- DC50 [1]: 6.2 µM
- Kd [2]: 0.306 µM
- Activity [3]: 50%
- fold change (FC) [4]: 1.2
- fold change (FC) [5]: 0.6
- fold change (FC) [6]: 1.2
- fold change (FC) [7]: 0.5
- fold change (FC) [8]: 1
- fold change (FC) [9]: 1.1
- fold change (FC) [10]: 1
- Activity [11]: Active
- Activity [12]: Active
- Activity [13]: Time-dependent-effect
- Activity [14]: Active
- Activity [15]: Active
- Activity [16]: inactive
SMILES: COc1cc2c(NC3CCN(CCCC(=O)NCCCCCCCCCCNC(=O)C[C@@H]4N=C(c5ccc(Cl)cc5)c5c(sc(C)c5C)-n5c(C)nnc54)CC3)cc(N3CCOCC3)nc2cc1OCCCN1CCCC1
- Activity (HT-29): inactive
